The conditions of data set [1]: 101.3 kPa, Liquid, Capillary tube (Ostwald / Ubbelohde) method.
The nature of data set [2]: refractive index (Na D-line) (dimensionless). The note with it: 101.33 kPa, Liquid, Standard Abbe refractometry.
A short description of data set [3]: refractive index (Na D-line) (dimensionless); mn = molality of the nth substance listed, in mol/kg. The note with it: 101.3 kPa, Liquid, Standard Abbe refractometry, m2 = 0.
Data set [4] can be described thus: mn = molality of the nth substance listed, in mol/kg. The note with it: 101.3 kPa, Liquid, m2 = 0; for viscosity: Capillary tube (Ostwald / Ubbelohde) method; for mass density: Pycnometric method; for speed of sound: Single path-length method.

Molecules are shown by their SMILES. Numbers after ± are expanded uncertainties.

For orientation: viscosity means the internal friction of a fluid under shear. Broadly, the refractive index is a measure of how strongly the sample bends light. For the compound `O` [water], the viscosity in data set [1] (278.15 K) turned out to be 1.519 ± 0.032 mPa·s; in data set [1] (288.15 K) it was 1.138 ± 0.025 mPa·s; in data set [1] (298.15 K), 0.8903 ± 0.019 mPa·s. Moreover, the refractive index in data set [2] (278.15 K) is listed as 1.3339 ± 0.0005; in data set [2] (288.15 K), 1.3334 ± 0.0005; in data set [2] (298.15 K), 1.3325 ± 0.0005.

One may read the mass density as mass per unit of volume. As usually defined, the speed of sound is how fast a sound wave travels through the sample. For the compound `O` [water] + O=C1O[C@H]([C@@H](O)CO)C(O)=C1O, the values for the refractive index in data set [3] (278.15 K), in data set [3] (288.15 K) and in data set [3] (298.15 K) were 1.3339 ± 0.0005, 1.3334 ± 0.0005 and 1.3325 ± 0.0005, respectively. The viscosity in data set [4] (278.15 K) stood at 1.519 ± 0.032 mPa·s; in data set [4] (288.15 K) it was 1.138 ± 0.025 mPa·s; in data set [4] (298.15 K), 0.8903 ± 0.019 mPa·s. Further, in data set [4] (278.15 K), the mass density came out at 999.96 ± 0.37 kg/m3. In data set [4] (278.15 K), the speed of sound was 1426.2 ± 2.2 m/s.

For the compound `O` [water] + O=C1O[C@H]([C@@H](O)CO)C([O-])=C1O.[Na+], the figures for the refractive index in data set [3] (278.15 K), in data set [3] (288.15 K) and in data set [3] (298.15 K) were 1.3339 ± 0.0005, 1.3334 ± 0.0005 and 1.3325 ± 0.0005, respectively. Further, the viscosity in data set [4] (278.15 K) worked out at 1.519 ± 0.032 mPa·s; in data set [4] (288.15 K), 1.138 ± 0.025 mPa·s; in data set [4] (298.15 K) it was 0.8903 ± 0.019 mPa·s. In data set [4] (278.15 K), the mass density stood at 999.96 ± 0.38 kg/m3. The speed of sound in data set [4] (278.15 K) came to 1426.2 ± 2.2 m/s.

These data come from the NIST ThermoML archive (doi:10.1016/j.jct.2013.08.016).
